Read-outs that look alike come from different tables or passages of the source. Values belong to the compound of their own block, whether it stands above or below them.
How the values were obtained:
C57BL/6J mice [1] = assay: Open field test (OFT); type: in vivo; conditions: 30 mg/kg orally for 3 days, 1 h open field
Procedure: (§1) C57BL/6J mice (male, 9–10 weeks old) were used for the behavioral tests. All mice were maintained under a 12:12-h light–dark cycle (lights on at 7:00 A.M.) with access to food and water ad libitum. Animal care and handling were performed according to guidelines by the Institutional Animal Care and Use Committee of Yonsei University (Seoul, Korea). Antalarmin, BMK-C203, and BMK-C205 were dissolved in peceol: TPGS: PEG400 (vehicle) (70%:20%:10%, respectively) and administered orally at a dose of 30 mg/kg for 3 days at 24-h intervals. All behavioral tests were conducted 2 h after the third drug was administered during light periods of the circadian cycle. TSTs were performed to verify the effect of CRF1R antagonists on depressive-like behavior. Each mouse was suspended by its tail on a bar 30 cm above the ground for 6 min using adhesive tape. Their movements were recorded by a camera and analyzed using the same parameters via EthoVision XT 8.5 software (Noldus Technologies). Immobility times during the last 4 min of the task were measured. Each mouse was placed in an open field (40 cm × 40 cm × 40 cm chamber) for 1 h to conduct an open field test (OFT) and test locomotion. Their locomotion was recorded and analyzed using EthoVision XT 8.5.

ACTH serum levels = assay: Serum ACTH level after TST (ELISA); type: in vivo, mice; conditions: 30 mg/kg orally for 3 days, immediately after TST
Procedure: (§2) The mice were anesthetized via intraperitoneal injections of 2,2,2-tribromoethanol (300 mg/kg, Sigma-Aldrich) immediately after the TST and before blood from the heart was sampled. Blood samples were collected in plastic tubes and incubated at room temperature for at least 2 h. The sera were extracted after centrifugation at 13,000×g for 10 min at 4 °C. CORT levels were determined via LC‒MS analysis. Serum (10 µL) was mixed with 20 μL of an internal standard solution (d4-cortisol) to prepare the samples. Subsequently, 100 μL of acetonitrile was added, and the mixture was centrifuged at 16,000×g for 10 min for protein precipitation. The supernatants (60 μL) were transferred into an autosampler vial, and 30 μL of water was added for efficient separation via high-performance liquid chromatography (HPLC). LC‒MS was performed with a triple quadrupole mass spectrometer coupled with HPLC using a C18 reversed-phase column. CORT levels were determined using a calibration curve constructed using CORT-spiked mouse serum. Serum samples (20 μL) were analyzed using a commercially available ELISA kit for ACTH (ab263880, Abcam) to measure ACTH serum levels.

CORT serum levels = assay: Serum CORT level after TST (LC-MS); type: in vivo, mice; conditions: 30 mg/kg orally for 3 days, immediately after TST
Procedure: as §2

C57BL/6J mice [2] = assay: Tail suspension test (TST); type: in vivo; conditions: 30 mg/kg orally for 3 days, test 2 h after third dose, last 4 min of 6 min
Procedure: as §1

PK studies in rats = type: in vivo, SD rats; conditions: male, Sprague-Dawley, rat, plasma, SD rats, n = 3
Procedure: CRF1R antagonist PKs were studied in naïve male SD rats following a single i.v. bolus injection or p.o. gavage. The i.v. injections used Antalarmin, BMK-C203, or BMK-C205 at doses of 5 mg/kg and BMK-I-152 at a dose of 1 mg/kg. The antagonist’s doses in the p.o. injection was 10 mg/kg. Three male SD rats weighing between 220 and 260 g were used to evaluate CRF1R antagonist PKs. The vehicle used for all dose groups was […]: TPGS: PEG400 (70%:20%:10%). Blood samples were collected from all treatment groups at 0 h (predose), 0.083, 0.25, 0.5, 1, 2, 4, 6, 8, and 24 h after dosing. Antalarmin, BMK-I-152, BMK-C203, and BMK-C205 concentrations in the plasma samples were determined via LC‒MS/MS (LLOQ was 1 ng/mL for CRF1R antagonists). PK parameter estimates were determined using the serial time-course profiles for plasma concentrations of three male rats per group via noncompartmental analysis using commercially available software (Phoenix WinNonlin, version 8.1, Pharsight Corporation, Mountain View, CA).

CRF1R [3] = target: T1, CRF1R (Homo sapiens, UniProt P34998); assay: Calcium mobilization assay (hCRF1R Ca2+ antagonism); type: cell-based; conditions: for IC50 (in words): reason for not selecting
T1 construct: HEK-Gα15 cells (Eurofins Scientific) transfected with CRF1R; host or cells: HEK-Gα15 cells
T1 sequence (P34998 24-415): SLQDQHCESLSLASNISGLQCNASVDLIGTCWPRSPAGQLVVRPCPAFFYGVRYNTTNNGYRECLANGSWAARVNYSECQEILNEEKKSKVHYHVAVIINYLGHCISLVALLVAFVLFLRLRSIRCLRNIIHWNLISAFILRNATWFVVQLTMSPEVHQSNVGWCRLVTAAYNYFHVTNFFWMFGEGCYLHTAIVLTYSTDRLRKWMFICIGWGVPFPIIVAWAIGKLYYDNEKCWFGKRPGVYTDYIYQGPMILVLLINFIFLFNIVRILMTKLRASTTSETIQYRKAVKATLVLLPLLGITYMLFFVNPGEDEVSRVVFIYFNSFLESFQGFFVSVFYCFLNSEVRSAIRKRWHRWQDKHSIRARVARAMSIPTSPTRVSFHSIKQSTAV
Procedure: HEK-Gα15 cells (Eurofins Scientific) transfected with CRF1R were plated in 96-well plates at a density of 50,000 cells/100 μL per well and incubated overnight. The next day, the cells were incubated with a Calcium 6 reagent (Molecular Devices) containing 0.5 mM probenecid (Sigma) at 37 °C for 1 h before adding compounds or dimethyl sulfoxide DMSO (positive and negative control; final concentration 0.1%). After incubation at 37 °C for 1 h, 50 μL urocortin (final concentration 2 nM) (Tocris) was dispensed into the well with FLIPR-tetra (Molecular Devices). […] Intracellular calcium changes were recorded at excitation and emission wavelengths of 470–495 and 515–575 nm, respectively. Relative fluorescence units (RFU) were calculated as the fluorescence signal maximum minus the signal minimum for 30 s after addition. The graphs and IC50 concentrations were calculated using GraphPad Prism 6 software.

[4] = Microsomal stability assay, human liver microsomes; type: in vitro ADME
Procedure: LC‒MS/MS was performed on a TSQ Vantage (Thermo, USA) coupled with a Nexera XR LC system (Shimadzu, Japan)[32]. The separation was performed on a Kinetex C18 column (2.1 × 100 mm, 2.6 µm, Phenomenex, USA) using a mobile phase of 0.1% formic acid and acetonitrile containing 0.1% formic acid. A gradient program was used for elution at a flow rate of 0.3 mL/min. The data were acquired using multiple-reaction monitoring (MRM) in positive mode.

CYP3A4 = CYP3A4 (Homo sapiens, UniProt P08684); assay: CYP inhibition assay CYP3A4 (midazolam 1'-hydroxylase); conditions: 10 μM, human liver microsomes, n = 3
[5] = set-up: method as in PMID 21308801; conditions: liver microsomal stability assay; cited from earlier work
CRF1R [6] = target: CRF1R; set-up: method as in PMID 21308801; conditions: cited from earlier work
CYP2C19 = target: T2, CYP2C19 (Homo sapiens, UniProt P33261); assay: CYP inhibition assay CYP2C19 (S-mephenytoin 4-hydroxylase); type: in vitro ADME
T2 construct: 0.25 mg/mL human liver microsomes; from tissue; host or cells: human liver microsomes

CYP2C9 = target: T3, CYP2C9 (Homo sapiens, UniProt P11712); assay: CYP inhibition assay CYP2C9 (diclofenac 4-hydroxylase); type: in vitro ADME
T3 construct: 0.25 mg/mL human liver microsomes; from tissue; host or cells: human liver microsomes

[7] = Microsomal stability assay, rat liver microsomes; type: in vitro ADME; conditions: 1 μM, n = 3
Procedure: The incubation mixtures consisted of 0.5 mg/mL human (Corning, #452117) and rat liver microsomes (Corning, #452701), 0.1 M phosphate buffer (pH 7.4), NADPH regeneration system, and substrates (CRF1R antagonist compounds, 1 µM) in a total volume of 100 μL. […] LC‒MS/MS was performed on a TSQ Vantage (Thermo, USA) coupled with a Nexera XR LC system (Shimadzu, Japan)[32]. The separation was performed on a Kinetex C18 column (2.1 × 100 mm, 2.6 µm, Phenomenex, USA) using a mobile phase of 0.1% formic acid and acetonitrile containing 0.1% formic acid. A gradient program was used for elution at a flow rate of 0.3 mL/min. The data were acquired using multiple-reaction monitoring (MRM) in positive mode. Detection of the ions was performed by monitoring the m/z transition of 494.1 → 336.1 for BMK-I-152, 598.1 → 233.2 for BMK-C203, and 488.1 → 434.1 for BMK-C205.

CYP1A2 = target: T4, CYP1A2 (Homo sapiens, UniProt P05177); assay: CYP inhibition assay CYP1A2 (phenacetin O-demethylase); type: in vitro ADME
T4 construct: 0.25 mg/mL human liver microsomes; from tissue; host or cells: human liver microsomes
T4 sequence (P05177 1-516): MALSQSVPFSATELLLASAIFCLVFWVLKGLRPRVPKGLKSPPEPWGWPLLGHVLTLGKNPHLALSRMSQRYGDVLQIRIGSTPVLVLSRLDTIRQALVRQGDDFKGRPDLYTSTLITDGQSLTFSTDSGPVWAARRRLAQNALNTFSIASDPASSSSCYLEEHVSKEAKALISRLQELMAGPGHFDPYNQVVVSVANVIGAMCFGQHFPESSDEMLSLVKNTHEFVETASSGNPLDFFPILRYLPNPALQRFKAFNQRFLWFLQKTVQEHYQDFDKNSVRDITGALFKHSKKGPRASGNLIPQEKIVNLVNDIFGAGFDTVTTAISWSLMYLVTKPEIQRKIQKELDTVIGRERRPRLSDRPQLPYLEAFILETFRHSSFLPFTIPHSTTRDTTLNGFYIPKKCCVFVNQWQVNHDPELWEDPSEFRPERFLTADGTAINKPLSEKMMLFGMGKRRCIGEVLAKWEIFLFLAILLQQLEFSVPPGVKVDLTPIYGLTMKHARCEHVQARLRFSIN

CYP2D6 = CYP2D6 (Homo sapiens, UniProt P10635); assay: CYP inhibition assay CYP2D6 (dextromethorphan O-demethylase); conditions: 10 μM, human liver microsomes, n = 3
[8] = 10 μM, human liver microsomes, n = 3

T2 sequence (P33261 whole entry): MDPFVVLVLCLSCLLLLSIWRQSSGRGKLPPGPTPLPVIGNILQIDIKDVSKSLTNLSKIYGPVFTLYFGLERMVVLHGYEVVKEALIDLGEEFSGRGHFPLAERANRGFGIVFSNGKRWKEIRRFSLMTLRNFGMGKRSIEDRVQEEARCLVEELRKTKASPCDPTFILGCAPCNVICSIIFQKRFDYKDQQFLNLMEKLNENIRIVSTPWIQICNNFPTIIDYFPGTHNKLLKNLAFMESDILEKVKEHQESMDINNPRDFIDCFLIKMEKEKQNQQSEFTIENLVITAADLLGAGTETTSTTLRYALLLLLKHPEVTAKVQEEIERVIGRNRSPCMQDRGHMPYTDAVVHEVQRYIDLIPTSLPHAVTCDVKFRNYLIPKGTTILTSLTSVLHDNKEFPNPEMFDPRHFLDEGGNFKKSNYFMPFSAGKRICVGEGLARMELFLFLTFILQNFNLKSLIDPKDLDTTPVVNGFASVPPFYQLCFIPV
T3 sequence (P11712 whole entry): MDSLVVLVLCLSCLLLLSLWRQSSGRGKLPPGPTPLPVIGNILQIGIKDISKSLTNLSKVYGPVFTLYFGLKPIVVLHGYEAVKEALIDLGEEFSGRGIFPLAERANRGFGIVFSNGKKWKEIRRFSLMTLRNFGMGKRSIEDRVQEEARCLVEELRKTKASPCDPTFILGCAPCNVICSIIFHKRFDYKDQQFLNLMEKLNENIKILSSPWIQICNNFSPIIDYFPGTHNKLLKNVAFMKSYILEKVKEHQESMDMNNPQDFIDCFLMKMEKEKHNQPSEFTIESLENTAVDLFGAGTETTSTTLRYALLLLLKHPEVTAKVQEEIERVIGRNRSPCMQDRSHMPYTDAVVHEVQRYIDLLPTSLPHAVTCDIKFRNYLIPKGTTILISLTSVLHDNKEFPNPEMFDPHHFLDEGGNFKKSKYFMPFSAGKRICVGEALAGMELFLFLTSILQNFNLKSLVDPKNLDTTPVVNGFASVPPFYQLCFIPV
Sequence of CYP3A4 (P08684 whole entry): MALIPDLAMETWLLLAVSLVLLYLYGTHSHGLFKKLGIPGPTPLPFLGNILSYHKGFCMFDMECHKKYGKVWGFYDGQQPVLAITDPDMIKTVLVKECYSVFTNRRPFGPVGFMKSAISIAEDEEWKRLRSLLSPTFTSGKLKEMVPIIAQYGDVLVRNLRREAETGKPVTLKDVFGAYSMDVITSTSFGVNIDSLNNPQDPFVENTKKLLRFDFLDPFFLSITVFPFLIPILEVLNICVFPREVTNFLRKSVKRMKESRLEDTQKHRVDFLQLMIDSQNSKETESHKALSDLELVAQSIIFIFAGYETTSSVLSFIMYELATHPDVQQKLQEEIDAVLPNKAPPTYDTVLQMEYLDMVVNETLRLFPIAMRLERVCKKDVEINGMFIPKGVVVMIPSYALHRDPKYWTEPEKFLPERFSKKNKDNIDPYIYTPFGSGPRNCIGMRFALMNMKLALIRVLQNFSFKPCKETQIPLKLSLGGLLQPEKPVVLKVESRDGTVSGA
Sequence of CYP2D6 (P10635 whole entry): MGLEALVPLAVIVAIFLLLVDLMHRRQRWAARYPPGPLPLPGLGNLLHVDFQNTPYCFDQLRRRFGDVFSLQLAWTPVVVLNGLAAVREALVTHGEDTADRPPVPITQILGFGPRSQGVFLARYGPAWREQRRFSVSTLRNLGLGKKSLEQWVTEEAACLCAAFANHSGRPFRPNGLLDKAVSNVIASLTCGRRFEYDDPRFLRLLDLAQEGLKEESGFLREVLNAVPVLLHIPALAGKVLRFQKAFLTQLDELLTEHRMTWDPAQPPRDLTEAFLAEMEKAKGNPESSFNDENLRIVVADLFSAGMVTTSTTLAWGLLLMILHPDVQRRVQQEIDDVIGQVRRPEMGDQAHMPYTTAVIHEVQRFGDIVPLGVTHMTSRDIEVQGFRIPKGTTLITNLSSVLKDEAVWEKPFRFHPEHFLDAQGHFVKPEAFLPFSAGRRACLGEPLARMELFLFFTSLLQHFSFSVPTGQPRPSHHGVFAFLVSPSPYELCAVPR

IC50 (in words) (CRF1R [3]): high IC50 values
Structure (SMILES): CCCCN(CCCC(F)(F)F)c1nc(C)nc2c(-c3c(OC)cc(Br)cc3OC)c(C)nn12 [BMK-C207]

IC50 (in words) (CRF1R [3]): high IC50 values
Structure (SMILES): CCCN(CCCC(F)(F)F)c1nc(C)nc2c(-c3c(OC)cc(Br)cc3OC)c(C)nn12 [BMK-C210]

More lines, now with the values behind:

Structure (SMILES): CCCCN(CC)c1nc(C)nc2c1c(C)c(C)n2-c1c(C)cc(C)cc1C [Antalarmin, reference compound]
OFT locomotion / overall moving distance (C57BL/6J mice [1]): did not differ among groups
serum ACTH level versus vehicle (ACTH serum levels): no significant difference
serum CORT level versus vehicle (CORT serum levels): no significant difference
TST immobility time versus vehicle (C57BL/6J mice [2]): no significant difference
AUC(0-t) (PK studies in rats; iv, I.V, 5 mg/kg): 4370 ng·h/mL
half-life (PK studies in rats; iv, I.V, 5 mg/kg): 3.09 h
AUC(0-t) (PK studies in rats; po, P.O, 10 mg/kg): 660 ng·h/mL
Cmax (PK studies in rats; po, P.O, 10 mg/kg): 146 ng/mL
Tmax (PK studies in rats; po, P.O, 10 mg/kg): 4 h
bioavailability (PK studies in rats; po, P.O, 10 mg/kg): 7.6%
half-life (PK studies in rats; po, P.O, 10 mg/kg): 4.08 h

Structure (SMILES): COc1cc(Br)cc(OC)c1-c1c(C)nn2c(N(CCCC(F)(F)F)CC3CC3)nc(C)nc12 [BMK-C209]
IC50 (in words) (CRF1R [3]): high IC50 values

Structure (SMILES): COCCN(CCOC)c1nc(C)nc2c(-c3c(OC)cc(Br)cc3OC)c(C)nn12 [BMK-I-152]
Liver microsomal stability, Human (percentage remaining after 30 min) ([4]; 1 μM, n = 3): 27.7 ± 3.87%
liver microsomal stability (remaining) ([4]; in almost all species (human and rat liver microsomes), 30 min): below 35%
CYP3A4, percentage of control activity (CYP3A4): 99.8 ± 3.0 percentage of control activity
half-life [5]: < 0.5 h
IC50 (CRF1R [3]; HEK-Gα15 cells transfected with CRF1R, urocortin 2 nM, n = 3): 26 nM
IC50 fold lower than that of Antalarmin (CRF1R [3]; hCRF1R Ca2+ antagonism assay): ~12 fold
IC50 fold lower than that of CP376395 (CRF1R [3]; hCRF1R Ca2+ antagonism assay): ~ 55 fold
Ki (CRF1R [6]): 0.35 nM
AUC(0-t) (PK studies in rats; iv, I.V, 1 mg/kg): 913 ng·h/mL
half-life (PK studies in rats; iv, I.V, 1 mg/kg): 13.5 h
AUC(0-t) (PK studies in rats; po, P.O, 10 mg/kg): 3080 ng·h/mL
Cmax (PK studies in rats; po, P.O, 10 mg/kg): 267 ng/mL
Tmax (PK studies in rats; po, P.O, 10 mg/kg): 6.67 h
bioavailability (PK studies in rats; po, P.O, 10 mg/kg): 33.8%
half-life (PK studies in rats; po, P.O, 10 mg/kg): 5.66 h
CYP2C19, percentage of control activity (CYP2C19; [8]): 83.2 ± 5.0 percentage of control activity
CYP2C9, percentage of control activity (CYP2C9; [8]): 89.9 ± 7.0 percentage of control activity
Liver microsomal stability, Rat (percentage remaining after 30 min) [7]: 35.3 ± 5.85%
CYP1A2, percentage of control activity (CYP1A2; [8]): 98.8 ± 1.8 percentage of control activity
CYP2D6, percentage of control activity (CYP2D6): > 100 ± 1.6 percentage of control activity

Structure (SMILES): CC(=O)N1CCN(c2ccc(OCC3COC(Cn4ccnc4)(c4ccc(Cl)cc4Cl)O3)cc2)CC1 (stereo not shown) [Ketoconazole, reference compound]
CYP2C19, percentage of control activity (CYP2C19; reference chemical at 0.1 μM): > 100 ± 12.9 percentage of control activity
CYP2C9, percentage of control activity (CYP2C9; reference chemical at 0.1 μM): 94.0 ± 9.2 percentage of control activity
CYP1A2, percentage of control activity (CYP1A2; reference chemical at 0.1 μM): 94.3 ± 5.3 percentage of control activity

From publication PMC10545732, “Structure-based drug discovery of a corticotropin-releasing hormone receptor 1 antagonist using an X-ray free-electron laser” (Experimental & Molecular Medicine, 2023)
